Values after ≈ are worked out from the molar mass of the structure shown.
Columns and labels:
[1] = tested on: CA-MRSA USA300 LAC; test: Curative treatment of female CD-1 mice infected SQ with CA-MRSA: abscess surface area by image analysis; type: in vivo, Staphylococcus aureus; conditions: for effect on maximum abscess surface area or time to resolution vs vehicle alone: 6 treatments
Protocol: CA-MRSA USA300 LAC (Staphylococcus aureus Rosenbach, ATCC BAA-1756) was stored in 50% glycerol at −80 °C until use. To start a culture, a Tryptic Soy Agar (TSA; Remel) plate was streaked and incubated overnight at 37 °C. A single colony from the streaked agar plate was transferred to a 50 mL conical tube containing 30 mL of Tryptic Soy Broth (TSB; Remel) and incubated [37 °C] overnight while shaking [200 rpm]. The overnight culture was diluted [1:10] in TSB, incubated at 37 °C for ~2 h until A600 = 0.5 to 0.55, and pelleted [3000 g, 10 min] at 4 °C. The pellet was resuspended in PBS and pelleted as before and then resuspended in 0.05% (w/v) Cytodex-1 in sterile PBS (typical yield ~5 × 10^8 CFU/mL). MRSA concentration was confirmed by serial dilution in sterile PBS, dot plating on TSA plates, and incubation at 37 °C for 24 h before counting.
All procedures were approved by the University of Nebraska Medical Center Institutional Animal Care and Use Committee. Female outbred CD-1 mice (Charles Rivers, Strain Code 022, 4-6 weeks old) were acclimated in the animal facility for at least one week, and their rear flanks were shaved 24 h before the study. Mice were anesthetized with isoflurane and 0.100 mL of CA-MRSA stock solution (Section 2.3) was injected SQ (5 × 10^7 CFU total) from the left rear flank into the dorsal side. […] For IM (left caudal muscle) and SQ (left flank) administration, CPDI-02 was administered in 0.050 mL of sterile PBS [20 mg/mL] (volume adjusted to 50 mg/kg dose). For topical administration (TOP), CPDI-02 was applied to abscesses in 0.100 mL of ointment (3% w/v) (Section 2.2) using a positive displacement pipette [150 mg/kg dose]. For IV administration (tail vein), CPDI-02 was administered in 0.050 mL sterile PBS [5 mg/mL] (volume adjusted to 12.5 mg/kg dose). […] Mouse abscesses were imaged with reference scales daily over 10 days starting at 24 h post-challenge. Abscess surface areas were determined by image analysis (ImageJ®, ver.1.54h) and compared between vehicle and treatment group for each administration route over ten days post-challenge by repeated measurement with two-way ANOVA with Geisser–Greenhouse correction.

[2] = tested on: healthy male and female outbred CD-1 mice; test: IM dose escalation in healthy CD-1 mice; type: in vivo
Protocol: Twenty-four CD-1 mice, approximately 4 weeks old, were randomized by weight and sex into four cohorts and then intramuscularly administered either vehicle alone (filter-sterilized 0.2 μm endotoxin-free PBS) or vehicle containing CPDI-02 twice a week over 4 weeks (eight doses total). CPDI-02 doses began at 15 mg/kg and subsequent doses were increased by a conventional modified Fibonacci scheme (increase over previous dose: 100%, 67%, 50%, 40%, 30%, 33%, 33%) to a final dose of 225 mg/kg. Mice were weighed prior to the study and prior to each dose administration. On each dose administration date, mice were assigned a Pain and Distress Assessment Score (Table S1). Four days after the last treatment, mice were euthanized, whole blood was collected for complete blood count (CBC) with differential (VetScan® HM5 Hematology Analyzer), and the thymus, heart, lungs, brain, liver, spleen, kidneys, femur bone marrow, popliteal lymph nodes, Peyer’s patches, and injection site muscle (left caudal thigh muscle) were collected. Collected tissues were fixed in 10% formalin for 48 h and then embedded in paraffin. Before embedment in paraffin, femur bone marrow samples underwent decalcification by shaking in 10% formic acid for 8 h. Paraffin samples were cut into sections and underwent a Hematoxylin and Eosin (H&E) stain, then analyzed for signs of inflammation and other tissue abnormalities utilizing a Nikon Eclipse E600 at 40× magnification, and imaged using a Lumenera Infinity 2 Microscope Camera.

[3] = tested on: healthy male and female outbred CD-1 mice; test: Repeat IM dosing in healthy CD-1 mice; type: in vivo
Protocol: Sixty CD-1 mice (thirty male and thirty female) approximately six weeks old were randomized into six cohorts (three cohorts for each gender) and then intramuscularly administered either vehicle alone (filter-sterilized 0.2 μm endotoxin-free PBS), vehicle containing CPDI-02 at 50% the observed MTD [65 mg/kg], or CPDI-02 suspended in PBS at 100% the observed MTD [130 mg/kg] twice a week over 32 days (nine doses total). Mice were weighed prior to each dose administration. On the day of administration, mice were assigned a Pain and Distress Assessment Score (Table S1). Four days after the last treatment, through terminal cardiac bleed, whole blood was collected for complete blood count (CBC) with differential (Abaxis VetScan® HM5 Hematology Analyzer, Union City, CA, USA) and blood chemistry (Abaxis VetScan® VS-2 Blood Chemistry Analyzer). In addition, injection site muscle tissues were collected, fixed in 10% formalin for 48 h, and then embedded in paraffin. Paraffin samples were cut into sections and underwent an H&E stain, then analyzed for signs of inflammation and other tissue abnormalities utilizing a Nikon Eclipse E600 (Nikon Corporation, Tokyo, Japan) at 200× magnification, and imaged using a Lumenera Infinity 2 Microscope Camera.

[4] = physchem; conditions: aqueous buffer

CSCC[C@H](NC(=O)[C@H](CC(=O)O)NC(=O)[C@H](CCCCN)NC(=O)[C@H](Cc1ccccc1)NC(=O)[C@H](CO)NC(=O)[C@@H](N)Cc1ccc(O)cc1)C(=O)N1CCC[C@H]1C(=O)N(C)[C@@H](CC(C)C)C(=O)N[C@H](C)C(=O)N[C@@H](CCCNC(=N)N)C(=O)O [CPDI-02]
effect of repeat treatment starting at 24 h post-challenge ([1]; regardless of administration route): no effect | maximum abscess surface area (Day 1 post-challenge) ([1]; repeat IM 50 mg/kg starting 6 h post-challenge, mean ± SEM, n = 10, vehicle 74 ± 11, p = 0.0052, SEM): 31 ± 8 mm^2 | effect on maximum abscess surface area or time to resolution vs vehicle alone ([1]; repeat IV (tail vein) 12.5 mg/kg starting 6 h post-challenge): no effect | effect on maximum abscess surface area or time to resolution vs vehicle alone ([1]; repeat SQ (left flank) 50 mg/kg starting 6 h post-challenge): no effect | effect on maximum abscess surface area or time to resolution vs vehicle alone ([1]; repeat topical (TOP), 0.100 mL of 3% w/v ointment on abscess, 150 mg/kg, starting 6 h post-challenge): no effect | time to resolution vs vehicle alone ([1]; single IM 50 mg/kg at 6 h post-challenge, similar extent as repeated IM treatment): decreased | weight gain or survival ([2]; male and female CD-1 mice, IM twice a week, 15 up to 225 mg/kg over 28 days, 8 doses, n = 6): did not affect | mice with signs of inflammation around the injection site ([2]; male mice, four days after final dose, H&E, vehicle none): 50% | mice with signs of inflammation around the injection site ([2]; mouse, in vivo): 83% | signs of inflammation in thymus, heart, lungs, brain, liver, spleen, kidneys, femur bone marrow, popliteal lymph nodes, Peyer's patches ([2]; mouse, in vivo): did not increase | platecrit vs vehicle alone ([2]; mouse, in vivo, 225 mg/kg): decreased | platelets vs vehicle alone ([2]; mouse, in vivo, 225 mg/kg): decreased | inflammation around the injection site vs vehicle alone ([3]; IM 65 and 130 mg/kg, dose-dependent, greater proportion of female than male mice, H&E): increased signs of mild to severe inflammation | mortality vs vehicle alone ([3]; female mice, repeat IM 130 mg/kg, after the eighth and ninth IM injection, p = 0.0022): increased mortality | signs of distress up to 2 h after injection ([3]; male and female CD-1 mice, IM 65 or 130 mg/kg, 9 injections, any treatment group): No signs of distress | weight gain ([3]; male or female CD-1 mice, IM 65 or 130 mg/kg twice per week over 32 days, 9 injections, n = 10): no effect | effect on CBC (including platelets, platecrit) or blood chemistry vs vehicle alone ([3]; male or female mice, IM 65 or 130 mg/kg, up to 4 days after final injection (Day 32), n = 5): did not | inflammation in thymus, heart, lungs, brain, liver, spleen, kidneys, femur bone marrow, popliteal lymph nodes, Peyer's patches ([3]; repeat IM 65 or 130 mg/kg, H&E): no signs of inflammation | solubility [4]: ~100 mg/mL (≈ 80.5 mM)

— paper PMC11677424, “Early-Stage IM Treatment with the Host-Derived Immunostimulant CPDI-02 Increases Curative Protection of Healthy Outbred Mice Against Subcutaneous Infection with Community-Acquired Methicillin-Resistant Staphylococcus aureus USA300” (Pharmaceutics, 2024)
